Test system: CCL64 mink lung epithelial cells
Experiment: CCL64 TGF-β bioassay (growth, crystal violet)
Type: cell-based
Conditions: human TGF-β1 and TGF-β2
Description: FIG. 1. Prevention of the growth inhibitory effects of recombinant and glioma-derived TGF-b1 and TGF-b2 by a TGF-β inhibitor (Compound No. 79 in Table 2). A. CCL64 cells were exposed to human recombinant TGF-b1 (filled symbols) or TGF-b2 (open symbols) (10 ng/ml) in the absence or presence of increasing concentrations of Comopund No. 79 for 72 h. B. CCL64 cells were maintained in serum-free medium containing heat-activated glioma cell SN (1:1) in the absence or presence of Compound No. 79 for 72 h. Growth was assessed by crystal violet assay (mean and SD, n=3).
The levels of bioactive TGF-β were determined using the CCL64 bioassay. Briefly, […] CCL64 cells were adhered to 96 well plates for 24 h, full medium was replaced by serum-free medium, and the cells were exposed to recombinant TGF-β1/2 or glioma cell culture supernatants diluted in serum-free medium for 72 h. Growth was assessed by crystal violet staining at 72 h. Glioma cell supernatants were harvested from confluent cultures maintained for 48 h in serum-free medium and heat-treated (5 min, 85° C.) to activate latent TGF-β (Leitlein et al., J. Immunol., 166:7238-7243 (2001)).

TGF-β1: "Human recombinant TGF-β1 and TGF-β2 were obtained from Peprotech (London, UK)"
EC50 of growth inhibitory effect on CCL64 cells: 0.5 ng/mL

TGF-β2: "Human recombinant TGF-β1 and TGF-β2 were obtained from Peprotech (London, UK)"
EC50 of growth inhibitory effect on CCL64 cells: 0.5 ng/mL
